How the values were obtained:
LLC-PK1 = assay: Efflux ratio of apparent permeability across apical to basolateral side over basolateral to apical side in pig LLC-PK1 cells expressing MDR1; format: ADME, cell-based, Sus scrofa
[1] = Half life in Sprague-Dawley rat at 1 mg/kg, iv and 4 mg/kg, po; format: ADME, organism-based; conditions: in vivo
[2] = target: T1, Tyrosine-protein kinase BTK (Homo sapiens, UniProt Q06187); assay: Inhibition of BTK autophosphorylation in human Raji cells after 30 mins by Phos-Y223 Btk HTRF assay; format: cell-based
[3] = Volume of distribution at steady state in Sprague-Dawley rat at 1 mg/kg, iv and 4 mg/kg, po; format: ADME, organism-based; conditions: in vivo, read-out: Vdss
MDR1 = assay: Apparent permeability across apical to basolateral side in pig LLC-PK1 cells expressing MDR1; format: ADME, cell-based, Sus scrofa
[4] = Hepatic extraction ratio in rat liver microsomes at 1 uM up to 30 mins by LC-MS/MS analysis; format: ADME; conditions: read-out: ERH
[5] = target: T1, Tyrosine-protein kinase BTK
Description: Inhibition of BTK in human Raji cells after 30 mins by HTRF assay

[6] = target: Tyrosine-protein kinase Lck (Homo sapiens, UniProt P06239); assay: Inhibition of Lck (unknown origin)
[7] = Clearance in Sprague-Dawley rat at 1 mg/kg, iv; format: ADME, organism-based; conditions: in vivo
[8] = Oral bioavailability in Sprague-Dawley rat at 4 mg/kg; format: ADME, organism-based; conditions: in vivo
[9] = Hepatic extraction ratio in human liver microsomes at 1 uM up to 30 mins by LC-MS/MS analysis; format: ADME; conditions: read-out: ERH
[10] = Hepatic extraction ratio in Sprague-Dawley rat at 1 mg/kg, iv; format: ADME, organism-based; conditions: in vivo, read-out: ERH
[11] = target: T2, Tyrosine-protein kinase HCK (Homo sapiens, UniProt P08631); assay: Inhibition of human recombinant Hck
Target sequence in this assay (P08631 whole entry): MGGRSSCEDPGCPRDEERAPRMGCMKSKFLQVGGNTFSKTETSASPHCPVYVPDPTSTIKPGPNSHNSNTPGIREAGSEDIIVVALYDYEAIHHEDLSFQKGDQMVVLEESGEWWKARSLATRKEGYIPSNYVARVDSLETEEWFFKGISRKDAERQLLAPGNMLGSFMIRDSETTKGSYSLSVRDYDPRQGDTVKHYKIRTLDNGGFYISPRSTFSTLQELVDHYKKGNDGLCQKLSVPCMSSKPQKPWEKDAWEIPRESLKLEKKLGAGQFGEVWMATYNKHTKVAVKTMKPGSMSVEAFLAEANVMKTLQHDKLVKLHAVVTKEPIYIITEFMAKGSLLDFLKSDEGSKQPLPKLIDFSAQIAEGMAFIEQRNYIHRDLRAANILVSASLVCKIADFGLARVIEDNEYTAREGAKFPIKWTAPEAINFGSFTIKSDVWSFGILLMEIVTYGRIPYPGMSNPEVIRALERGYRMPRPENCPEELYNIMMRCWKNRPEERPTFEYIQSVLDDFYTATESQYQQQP

[12] = target: T3, Tyrosine-protein kinase Lyn (Homo sapiens, UniProt P07948); assay: Inhibition of human recombinant LynB
Target sequence in this assay (P07948 whole entry): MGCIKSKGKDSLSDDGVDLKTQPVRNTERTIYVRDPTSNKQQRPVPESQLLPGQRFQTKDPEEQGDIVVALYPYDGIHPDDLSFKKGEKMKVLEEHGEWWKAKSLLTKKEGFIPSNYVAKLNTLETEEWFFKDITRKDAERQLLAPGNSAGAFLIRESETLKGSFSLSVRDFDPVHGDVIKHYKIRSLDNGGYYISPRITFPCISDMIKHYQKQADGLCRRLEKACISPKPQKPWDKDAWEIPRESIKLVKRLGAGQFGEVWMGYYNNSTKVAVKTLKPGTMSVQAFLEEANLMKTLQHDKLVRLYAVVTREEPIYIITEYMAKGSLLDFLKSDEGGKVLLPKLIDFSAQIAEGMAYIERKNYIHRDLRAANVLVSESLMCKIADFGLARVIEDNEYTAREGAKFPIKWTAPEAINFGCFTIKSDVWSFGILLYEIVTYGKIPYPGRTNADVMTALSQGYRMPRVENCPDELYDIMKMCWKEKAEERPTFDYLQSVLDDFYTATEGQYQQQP

[13] = Oral bioavailability in C57/bl6 mouse at 10 mg/kg; format: ADME, organism-based; conditions: in vivo
[14] = target: T3, Tyrosine-protein kinase Lyn; conditions: 1 uM
Target sequence in this assay (P07948 2-512 limits assumed): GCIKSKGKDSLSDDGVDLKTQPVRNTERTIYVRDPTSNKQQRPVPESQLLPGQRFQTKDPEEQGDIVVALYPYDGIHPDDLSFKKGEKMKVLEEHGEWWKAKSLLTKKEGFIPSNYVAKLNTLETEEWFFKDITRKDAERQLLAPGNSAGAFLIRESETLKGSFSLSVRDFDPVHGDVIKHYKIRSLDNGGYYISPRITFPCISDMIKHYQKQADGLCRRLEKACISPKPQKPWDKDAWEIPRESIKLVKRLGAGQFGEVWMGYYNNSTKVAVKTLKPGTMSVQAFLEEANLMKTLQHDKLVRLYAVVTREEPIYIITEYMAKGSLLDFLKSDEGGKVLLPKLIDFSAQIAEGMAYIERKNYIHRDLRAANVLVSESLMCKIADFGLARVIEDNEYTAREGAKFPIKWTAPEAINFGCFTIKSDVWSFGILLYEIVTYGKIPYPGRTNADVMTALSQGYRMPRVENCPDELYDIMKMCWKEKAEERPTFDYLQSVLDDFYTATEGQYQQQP
Description: Inhibition of human recombinant LynA at 1 uM

[15] = target: T4, Proto-oncogene tyrosine-protein kinase Src (Homo sapiens, UniProt P12931); assay: Inhibition of human recombinant Src
[16] = target: T3, Tyrosine-protein kinase Lyn; conditions: 1 uM; remark: listed apart in the source
Target sequence in this assay (P07948 2-512 limits assumed): as above
Description: Inhibition of human recombinant LynB at 1 uM

Rattus norvegicus [17] = assay: Antiarthritic activity in po dosed bovine type-2 collagen-induced po dosed female Lewis rat arthritic model assessed as inhibition of paw volume administered as qd starting on day 12 continued through day 21; format: functional, organism-based
[18] = target: T5, Tyrosine-protein kinase Blk (Homo sapiens, UniProt P51451); assay: Inhibition of human recombinant Blk at 1 uM
[19] = target: T3, Tyrosine-protein kinase Lyn; assay: Inhibition of human recombinant LynA
Target sequence in this assay (P07948 whole entry): as the sequence (P07948 whole entry) above

[20] = target: T4, Proto-oncogene tyrosine-protein kinase Src; assay: Inhibition of human recombinant Src at 1 uM
LIM domain kinase 1 = LIM domain kinase 1 (Homo sapiens, UniProt P53667); assay: Inhibition of human recombinant LIMK1 by LanthaScreen Binding assay
[21] = target: T6, Tyrosine-protein kinase FRK (Homo sapiens, UniProt P42685); assay: Inhibition of human recombinant Frk
[22] = target: T6, Tyrosine-protein kinase FRK; assay: Inhibition of human recombinant Frk at 1 uM
[23] = target: T7, Tyrosine-protein kinase Fgr (Homo sapiens, UniProt P09769); assay: Inhibition of human recombinant Fgr
Target sequence in this assay (P09769 whole entry): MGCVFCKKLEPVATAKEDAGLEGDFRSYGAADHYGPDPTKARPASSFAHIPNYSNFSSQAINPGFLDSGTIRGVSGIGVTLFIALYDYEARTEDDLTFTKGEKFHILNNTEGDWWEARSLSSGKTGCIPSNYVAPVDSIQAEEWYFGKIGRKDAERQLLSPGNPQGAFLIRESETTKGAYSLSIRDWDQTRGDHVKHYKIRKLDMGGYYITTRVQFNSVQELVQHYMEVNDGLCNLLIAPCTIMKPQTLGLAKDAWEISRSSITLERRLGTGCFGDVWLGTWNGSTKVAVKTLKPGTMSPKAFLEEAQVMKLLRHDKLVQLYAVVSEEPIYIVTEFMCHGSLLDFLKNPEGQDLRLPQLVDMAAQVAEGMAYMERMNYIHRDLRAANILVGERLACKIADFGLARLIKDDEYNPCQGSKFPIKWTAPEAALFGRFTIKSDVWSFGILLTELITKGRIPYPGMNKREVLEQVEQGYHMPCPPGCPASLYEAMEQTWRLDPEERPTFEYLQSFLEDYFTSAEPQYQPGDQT

[24] = target: T5, Tyrosine-protein kinase Blk; assay: Inhibition of human recombinant Blk
[25] = Clearance in C57/bl6 mouse at 1 mg/kg, iv and 10 mg/kg, po; format: ADME, organism-based; conditions: in vivo
[26] = Volume of distribution at steady state in C57/bl6 mouse at 1 mg/kg, iv and 10 mg/kg, po; format: ADME, organism-based; conditions: in vivo, read-out: Vdss
[27] = target: Cytoplasmic tyrosine-protein kinase BMX (Homo sapiens, UniProt P51813); assay: Inhibition of human recombinant Bmx
[28] = target: Tyrosine-protein kinase Tec (Homo sapiens) (UniProt P42680); assay: Inhibition of human recombinant Tec at 1 uM
[29] = target: Tyrosine-protein kinase Fyn (Homo sapiens) (UniProt P06241); assay: Inhibition of human recombinant Fyn at 1 uM
[30] = Oral bioavailability in beagle dog at 10 mg/kg; format: ADME, organism-based, Canis lupus familiaris; conditions: in vivo
Activin receptor type-1 = Activin receptor type-1 (Homo sapiens, UniProt Q04771); assay: Inhibition of human recombinant ALK2 by LanthaScreen Binding assay
[31] = Volume of distribution at steady state in beagle dog at 1 mg/kg, iv and 10 mg/kg, po; format: ADME, organism-based, Canis lupus familiaris; conditions: in vivo, read-out: Vdss
Activated CDC42 kinase 1 = Activated CDC42 kinase 1 (Homo sapiens, UniProt Q07912); assay: Inhibition of human recombinant TNK2 by LanthaScreen Binding assay
[32] = target: Tyrosine-protein kinase Yes (Homo sapiens) (UniProt P07947); assay: Inhibition of human recombinant Yes at 1 uM
[33] = Half life in beagle dog at 1 mg/kg, iv and 10 mg/kg, po; format: ADME, organism-based, Canis lupus familiaris; conditions: in vivo
[34] = Half life in C57/bl6 mouse at 1 mg/kg, iv and 10 mg/kg, po; format: ADME, organism-based; conditions: in vivo
[35] = target: Cytoplasmic tyrosine-protein kinase BMX (Homo sapiens) (UniProt P51813); assay: Inhibition of human recombinant Bmx at 1 uM
[36] = target: T2, Tyrosine-protein kinase HCK; assay: Inhibition of human recombinant Hck at 1 uM
[37] = target: Tyrosine-protein kinase Tec (Homo sapiens, UniProt P42680); assay: Inhibition of human recombinant Tec
[38] = Clearance in beagle dog at 1 mg/kg, iv and 10 mg/kg, po; format: ADME, organism-based, Canis lupus familiaris; conditions: in vivo
[39] = target: T7, Tyrosine-protein kinase Fgr; assay: Inhibition of human recombinant Fgr at 1 uM
Rattus norvegicus [40] = assay: Antiarthritic activity in po dosed bovine type-2 collagen-induced po dosed female Lewis rat arthritic model assessed as increase in paw volume AUC (0 to 24 hrs) administered as qd starting on day 12 continued through day 21; format: functional, organism-based

Chain of Tyrosine-protein kinase Lck (P06239 whole entry): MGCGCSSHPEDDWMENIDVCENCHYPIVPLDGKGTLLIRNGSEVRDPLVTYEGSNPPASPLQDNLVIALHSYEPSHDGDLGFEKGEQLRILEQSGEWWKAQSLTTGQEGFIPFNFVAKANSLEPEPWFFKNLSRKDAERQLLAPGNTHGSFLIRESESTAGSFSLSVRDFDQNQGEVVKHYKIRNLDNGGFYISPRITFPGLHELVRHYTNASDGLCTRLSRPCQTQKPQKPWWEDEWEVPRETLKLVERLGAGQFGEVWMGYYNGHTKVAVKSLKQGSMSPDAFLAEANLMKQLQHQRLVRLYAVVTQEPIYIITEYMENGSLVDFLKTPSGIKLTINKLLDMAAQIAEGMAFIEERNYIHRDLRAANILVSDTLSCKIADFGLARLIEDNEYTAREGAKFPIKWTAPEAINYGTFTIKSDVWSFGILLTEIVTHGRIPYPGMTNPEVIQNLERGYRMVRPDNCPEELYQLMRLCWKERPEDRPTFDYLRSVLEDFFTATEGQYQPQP
T1 sequence (Q06187 whole entry): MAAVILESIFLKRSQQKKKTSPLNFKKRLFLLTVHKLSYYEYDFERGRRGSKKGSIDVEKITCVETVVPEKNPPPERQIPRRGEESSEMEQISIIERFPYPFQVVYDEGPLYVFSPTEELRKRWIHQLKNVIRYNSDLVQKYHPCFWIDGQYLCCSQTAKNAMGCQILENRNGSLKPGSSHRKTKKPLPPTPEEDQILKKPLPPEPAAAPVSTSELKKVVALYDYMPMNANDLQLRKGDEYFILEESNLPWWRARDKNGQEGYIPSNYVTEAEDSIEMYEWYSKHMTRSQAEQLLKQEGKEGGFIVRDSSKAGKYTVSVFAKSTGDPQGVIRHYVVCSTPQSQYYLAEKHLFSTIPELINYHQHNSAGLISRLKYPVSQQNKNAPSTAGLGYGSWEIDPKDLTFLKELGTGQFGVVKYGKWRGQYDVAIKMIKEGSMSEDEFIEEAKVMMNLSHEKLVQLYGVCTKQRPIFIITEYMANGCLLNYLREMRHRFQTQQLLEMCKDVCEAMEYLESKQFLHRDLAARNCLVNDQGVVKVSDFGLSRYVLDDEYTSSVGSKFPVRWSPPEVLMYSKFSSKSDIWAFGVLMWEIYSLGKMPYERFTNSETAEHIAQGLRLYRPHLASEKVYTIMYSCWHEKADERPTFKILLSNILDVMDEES
T4 sequence (P12931 2-536 limits assumed): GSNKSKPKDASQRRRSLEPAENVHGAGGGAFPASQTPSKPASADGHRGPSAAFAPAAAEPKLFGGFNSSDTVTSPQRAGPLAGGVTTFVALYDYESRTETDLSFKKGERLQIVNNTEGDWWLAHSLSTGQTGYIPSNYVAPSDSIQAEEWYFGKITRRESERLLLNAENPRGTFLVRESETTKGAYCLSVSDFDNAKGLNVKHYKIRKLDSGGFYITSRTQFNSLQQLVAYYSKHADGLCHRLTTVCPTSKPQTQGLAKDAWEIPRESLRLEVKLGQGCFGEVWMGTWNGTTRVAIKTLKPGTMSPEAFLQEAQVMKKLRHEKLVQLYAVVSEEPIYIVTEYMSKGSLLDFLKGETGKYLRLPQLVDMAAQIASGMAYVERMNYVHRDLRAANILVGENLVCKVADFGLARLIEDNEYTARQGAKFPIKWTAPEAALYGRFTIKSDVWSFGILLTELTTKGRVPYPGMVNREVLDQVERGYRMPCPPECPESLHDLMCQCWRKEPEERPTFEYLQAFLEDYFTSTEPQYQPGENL
T6 sequence (P42685 whole entry): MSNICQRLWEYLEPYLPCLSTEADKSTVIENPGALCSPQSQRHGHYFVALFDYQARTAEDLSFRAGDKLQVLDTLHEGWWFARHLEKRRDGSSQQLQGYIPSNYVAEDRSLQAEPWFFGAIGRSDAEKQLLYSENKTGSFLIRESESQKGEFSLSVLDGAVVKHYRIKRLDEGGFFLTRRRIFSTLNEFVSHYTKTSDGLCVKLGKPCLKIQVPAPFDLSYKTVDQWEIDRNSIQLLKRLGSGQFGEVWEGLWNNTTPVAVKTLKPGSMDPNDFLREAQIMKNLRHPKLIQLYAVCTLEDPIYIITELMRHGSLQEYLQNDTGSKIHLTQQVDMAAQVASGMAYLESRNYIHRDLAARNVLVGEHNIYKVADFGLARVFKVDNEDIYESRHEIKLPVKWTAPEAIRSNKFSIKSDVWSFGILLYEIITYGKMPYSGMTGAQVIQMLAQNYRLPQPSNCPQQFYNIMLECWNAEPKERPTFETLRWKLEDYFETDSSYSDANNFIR
Chain of Activin receptor type-1 (Q04771 whole entry): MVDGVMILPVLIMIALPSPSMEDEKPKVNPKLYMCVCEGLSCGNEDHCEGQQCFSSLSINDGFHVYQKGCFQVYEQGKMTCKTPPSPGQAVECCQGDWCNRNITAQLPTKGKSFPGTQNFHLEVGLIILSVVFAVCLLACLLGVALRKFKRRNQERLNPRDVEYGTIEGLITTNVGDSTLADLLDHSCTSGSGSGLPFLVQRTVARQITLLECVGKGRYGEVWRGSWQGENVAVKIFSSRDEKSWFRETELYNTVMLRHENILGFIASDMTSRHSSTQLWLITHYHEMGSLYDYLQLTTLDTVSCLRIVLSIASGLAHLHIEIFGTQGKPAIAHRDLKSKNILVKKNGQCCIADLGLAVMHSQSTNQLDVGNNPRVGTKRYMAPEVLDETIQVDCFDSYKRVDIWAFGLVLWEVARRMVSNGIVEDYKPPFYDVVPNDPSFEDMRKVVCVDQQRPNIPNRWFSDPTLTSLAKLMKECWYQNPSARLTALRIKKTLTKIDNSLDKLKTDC

In the case of Cn1cc(-c2cccc3c(N)c(C(N)=O)nnc23)cn1, the Ratio (LLC-PK1) is reported as 0.7, the half-life [1] is reported as 1.3 h and the EC50 [2] is reported as greater than 50000 nM. For the same compound, the Vd [3] was 0.7 L/kg, the Papp A→B (MDR1) was 28.8 ×10⁻⁶ cm/s and the hepatic extraction ratio at 0.5 h, 1 µM [4] was 0.5. It also gave an IC50 [5] of 240000 nM, an IC50 [6] of 13000 nM and a clearance [7] of 22 mL/min/kg. It also gave a bioavailability [8] of 35%, a hepatic extraction ratio at 0.5 h, 1 µM [9] of 0.77 and a hepatic extraction ratio [10] of 0.3.
For NC(=O)c1nnc2ccccc2c1N, the IC50 [5] was 3500 nM and the IC50 [6] was 38000 nM.
Compound NC(=O)c1nnc2c(-c3ccc4cc[nH]c4c3)cccc2c1N has an IC50 [6] of 6400 nM.
Compound NC(=O)c1nnc2c(-c3ccc4cn[nH]c4c3)cccc2c1N has an IC50 [6] of 1300 nM.
In the case of Cc1cc2cn[nH]c2cc1-c1cccc2c(N)c(C(N)=O)nnc12, the IC50 [11] is reported as 99 nM, the IC50 [12] is reported as 54 nM and the half-life [1] is reported as 1.6 h. It also gave a bioavailability [13] of 93%, an inhibition [14] of 82% and a Vd [3] of 1.5 L/kg. The IC50 [15] was 67 nM, the inhibition [16] was 85% and the Activity (Rattus norvegicus [17]) was “Dose-dependent effect”. For the same compound, the inhibition [18] was 89%, the IC50 [19] was 82 nM and the inhibition [20] was 87%. For the same compound, the IC50 (LIM domain kinase 1) was 12 nM, the IC50 [21] was 41 nM and the inhibition [22] was 88%. For the same compound, the IC50 [23] was 41 nM, the IC50 [24] was 36 nM and the clearance [25] was 18 mL/min/kg. For the same compound, the Vd [26] was 0.8 L/kg, the IC50 [27] was 36 nM and the inhibition [28] was 92%. The inhibition [29] was 53%, the bioavailability [30] was 89% and the IC50 (Activin receptor type-1) was 7 nM. The Vd [31] was 1.1 L/kg, the IC50 (Activated CDC42 kinase 1) was 11 nM and the clearance [7] was 12 mL/min/kg. For the same compound, the inhibition [32] was 73%, the half-life [33] was 4.1 h and the half-life [34] was 1.6 h. The bioavailability [8] was 70%, the inhibition [35] was 91% and the inhibition [36] was 82%. It also gave an IC50 [37] of 57 nM, a clearance [38] of 8.7 mL/min/kg and an inhibition [39] of 94%. For the same compound, the Activity (Rattus norvegicus [40]) was “Dose-dependent effect”.
